Reference: US6737383B1, “Herbicidal oxadiazolidines” (priority 1999, dated 2004)

Legend:
blackgrass = assay: Test B pre/postemergence blackgrass; format: in vivo, Alopecurus myosuroides
Procedure, shortened: (§1)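 Response is a visual 0-to-10 score relative to untreated plants, where 0 means no effect and 10 means complete control, taken twelve to sixteen days after application. Treatments went onto soil at planting and onto foliage of 1- to 4-leaf plants, using a surfactant-containing non-phytotoxic solvent.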

wild oat = assay: Test B pre/postemergence wild oat; format: in vivo, Avena fatua
Procedure, shortened: as §1

wheat = assay: Test B pre/postemergence wheat; format: in vivo, Triticum aestivum
Procedure, shortened: as §1

corn = assay: Test B pre/postemergence corn; format: in vivo, Zea mays
Procedure, shortened: as §1

rice = assay: Test B flood test rice; format: in vivo, Oryza sativa
Procedure, shortened: (§2)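 Flood test on plants grown to the 2-leaf stage; treated plants kept in greenhouse twelve to sixteen days, then visually rated against controls on a 0 (no effect) to 10 (complete control) scale.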

sugar beet = assay: Test B pre/postemergence sugar beet; format: in vivo, Beta vulgaris
Procedure, shortened: as §1

smallflower flatsedge = assay: Test B flood test smallflower flatsedge; format: in vivo, Cyperus difformis
Procedure, shortened: as §2

bamyardgrass = assay: Test B flood test barnyardgrass; format: in vivo, Echinochloa crus-galli
Procedure, shortened: as §2

bedstraw = assay: Test B pre/postemergence bedstraw; format: in vivo, Galium aparine
Procedure, shortened: as §1

velvetleaf = assay: Test B pre/postemergence velvetleaf; format: in vivo, Abutilon theophrasti
Procedure, shortened: as §1

rape = assay: Test B pre/postemergence rape; format: in vivo, Brassica napus
Procedure, shortened: as §1

purple nutsedge = assay: Test B pre/postemergence purple nutsedge; format: in vivo, Cyperus rotundus
Procedure, shortened: as §1

surinam grass = assay: Test B pre/postemergence surinam grass; format: in vivo, Brachiaria decumbens
Procedure, shortened: as §1

duck salad = assay: Test B flood test duck salad; format: in vivo, Heteranthera limosa
Procedure, shortened: as §2

crabgrass = assay: Test B pre/postemergence crabgrass; format: in vivo, Digitaria sanguinalis
Procedure, shortened: as §1

giant foxtail = assay: Test B pre/postemergence giant foxtail; format: in vivo, Setaria faberii
Procedure, shortened: as §1

[1] = Postemergence, Rate 250 g/ha, scale 0 to 10, 0 no effect, 10 complete control
[2] = Postemergence, Rate 1000 g/ha, scale 0 to 10 (0 no effect, 10 complete control)
[3] = Preemergence, Rate 125 g/ha, scale 0 to 10 (0 no effect, 10 complete control)
[4] = Preemergence, Rate 250 g/ha, scale of 0 to 10 where 0 is no effect and 10 is complete control
[5] = Preemergence, Rate 500 g/ha, scale 0 (no effect) to 10 (complete control)
[6] = Rate 125 g/ha, Postemergence, scale 0 to 10, 0 no effect, 10 complete control
[7] = Rate 500 g/ha, Postemergence, 0 to 10 scale (0 no effect, 10 complete control)
[8] = Rate 1000 g/ha, Preemergence, scale 0 to 10 (0 no effect, 10 complete control)
[9] = Rate 125 g/ha, Postemergence section (flood test species), scale 0 to 10, 0 no effect, 10 complete control
[10] = Rate 500 g/ha, Postemergence section of Table B, 0 to 10 scale (0 no effect, 10 complete control)
[11] = flood test, listed under Postemergence, Rate 250 g/ha, scale 0 to 10, 0 no effect, 10 complete control

COc1ccc(-n2c(=O)on(C(=O)N(c3ccc(F)cc3)C(C)C)c2=O)cc1 [Compound 5]
Blackgrass plant response rating (blackgrass; [1]): 5 | Blackgrass plant response rating (blackgrass; [2]): 8 | Plant response rating, Blackgrass (blackgrass; [3]): 3 | Plant response rating, Blackgrass (blackgrass; [4]): 3 | Blackgrass plant response rating (blackgrass; [5]): 5 | Blackgrass plant response rating (blackgrass; [6]): 4 | Blackgrass plant response rating (blackgrass; [7]): 4 | Plant response rating, Blackgrass (blackgrass; [8]): 8 | Wild oats plant response rating (wild oat; [1]): 1 | Wild oats plant response rating (wild oat; [2]): 1 | Plant response rating, Wild oats (wild oat; [3]): 0 | Plant response rating, Wild oats (wild oat; [4]): 6 | Wild oats plant response rating (wild oat; [5]): 6 | Wild oats plant response rating (wild oat; [6]): 0 | Plant response rating, Wild oats (wild oat; [8]): 6 | Wheat plant response rating (wheat; [1]): 1 | Wheat plant response rating (wheat; [2]): 2 | Plant response rating, Wheat (wheat; [3]): 0 | Plant response rating, Wheat (wheat; [4]): 0 | Wheat plant response rating (wheat; [5]): 0 | Wheat plant response rating (wheat; [6]): 0 | Plant response rating, Wheat (wheat; [8]): 0 | Corn plant response rating (corn; [1]): 0 | Corn plant response rating (corn; [2]): 0 | Plant response rating, Corn (corn; [3]): 0 | Plant response rating, Corn (corn; [4]): 0 | Corn plant response rating (corn; [5]): 0 | Corn plant response rating (corn; [6]): 0 | Corn plant response rating (corn; [7]): 0 | Plant response rating, Corn (corn; [8]): 0 | Rice plant response rating (rice; [2]): 0 | Rice plant response rating (rice; [9]): 0 | Rice plant response rating (rice; [10]): 0 | Rice plant response rating (rice; [11]): 0 | Sugarbeets plant response rating (sugar beet; [1]): 4 | Sugarbeets plant response rating (sugar beet; [2]): 7 | Plant response rating, Sugarbeets (sugar beet; [3]): 0 | Plant response rating, Sugarbeets (sugar beet; [4]): 0 | Sugarbeets plant response rating (sugar beet; [5]): 0 | Sugarbeets plant response rating (sugar beet; [6]): 3 | Plant response rating, Sugarbeets (sugar beet; [8]): 0 | S. Flatsedge plant response rating (smallflower flatsedge; [2]): 2 | S. Flatsedge plant response rating (smallflower flatsedge; [9]): 0 | S. Flatsedge plant response rating (smallflower flatsedge; [11]): 0 | Barnyardgrass plant response rating (bamyardgrass; [2]): 4 | Barnyardgrass plant response rating (bamyardgrass; [9]): 0 | Barnyardgrass plant response rating (bamyardgrass; [10]): 2 | Barnyardgrass plant response rating (bamyardgrass; [11]): 0 | Bedstraw plant response rating (bedstraw; [1]): 4 | Bedstraw plant response rating (bedstraw; [2]): 4 | Plant response rating, Bedstraw (bedstraw; [3]): 0 | Plant response rating, Bedstraw (bedstraw; [4]): 0 | Bedstraw plant response rating (bedstraw; [5]): 0 | Bedstraw plant response rating (bedstraw; [6]): 3 | Bedstraw plant response rating (bedstraw; [7]): 4 | Plant response rating, Bedstraw (bedstraw; [8]): 0 | Velvetleaf plant response rating (velvetleaf; [1]): 5 | Velvetleaf plant response rating (velvetleaf; [2]): 7 | Plant response rating, Velvetleaf (velvetleaf; [3]): 0 | Plant response rating, Velvetleaf (velvetleaf; [4]): 0 | Velvetleaf plant response rating (velvetleaf; [5]): 0 | Velvetleaf plant response rating (velvetleaf; [6]): 4 | Plant response rating, Velvetleaf (velvetleaf; [8]): 0 | Rape plant response rating (rape; [1]): 5 | Rape plant response rating (rape; [2]): 5 | Plant response rating, Rape (rape; [3]): 0 | Plant response rating, Rape (rape; [4]): 0 | Rape plant response rating (rape; [5]): 0 | Rape plant response rating (rape; [6]): 5 | Rape plant response rating (rape; [7]): 4 | Plant response rating, Rape (rape; [8]): 0 | Nutsedge plant response rating (purple nutsedge; [1]): 0 | Nutsedge plant response rating (purple nutsedge; [2]): 0 | Plant response rating, Nutsedge (purple nutsedge; [3]): 0 | Plant response rating, Nutsedge (purple nutsedge; [4]): 0 | Nutsedge plant response rating (purple nutsedge; [5]): 0 | Nutsedge plant response rating (purple nutsedge; [6]): 0 | Nutsedge plant response rating (purple nutsedge; [7]): 0 | Plant response rating, Nutsedge (purple nutsedge; [8]): 0 | B. signalgrass plant response rating (surinam grass; [1]): 0 | B. signalgrass plant response rating (surinam grass; [2]): 4 | Plant response rating, B. signalgrass (surinam grass; [3]): 3 | Plant response rating, B. signalgrass (surinam grass; [4]): 3 | B. signalgrass plant response rating (surinam grass; [5]): 3 | B. signalgrass plant response rating (surinam grass; [6]): 0 | B. signalgrass plant response rating (surinam grass; [7]): 0 | Plant response rating, B. signalgrass (surinam grass; [8]): 8 | Ducksalad plant response rating (duck salad; [2]): 0 | Ducksalad plant response rating (duck salad; [9]): 0 | Ducksalad plant response rating (duck salad; [10]): 0 | Ducksalad plant response rating (duck salad; [11]): 0 | Crabgrass plant response rating (crabgrass; [1]): 6 | Crabgrass plant response rating (crabgrass; [2]): 6 | Plant response rating, Crabgrass (crabgrass; [3]): 3 | Plant response rating, Crabgrass (crabgrass; [4]): 3 | Crabgrass plant response rating (crabgrass; [5]): 6 | Crabgrass plant response rating (crabgrass; [6]): 3 | Crabgrass plant response rating (crabgrass; [7]): 6 | Plant response rating, Crabgrass (crabgrass; [8]): 7 | Giant foxtail plant response rating (giant foxtail; [1]): 7 | Giant foxtail plant response rating (giant foxtail; [2]): 7 | Plant response rating, Giant foxtail (giant foxtail; [3]): 7 | Plant response rating, Giant foxtail (giant foxtail; [4]): 8 | Giant foxtail plant response rating (giant foxtail; [5]): 9 | Giant foxtail plant response rating (giant foxtail; [6]): 1 | Giant foxtail plant response rating (giant foxtail; [7]): 4 | Plant response rating, Giant foxtail (giant foxtail; [8]): 10
